Data as given in US5998594A, “Self-assembling, chromogenic receptors for the recognition of medically important substrates and their method of use” (University of Pittsburgh of the Commonwealth System of …, priority 1994, dated 1999).

What was measured:
[1] = complexation with dicarboxylic acids in CHCl3 (UV-vis, NMR, Job's plot); assay type: binding
Excerpt: (§1) Complexation of Receptor 1 with Dicarboxylic Acids. Receptor 1 is a bis(acylaminopyridine) receptor and as such was expected to form strong bidentate interactions with dicarboxylic acids in chloroform. This was indeed the case, as 1 was found by NMR to bind glutaric acid with an association constant of 3.6×10^4 M^-1. Large changes in proton chemical shifts of 1 indicate that the dicarboxylic acid is hydrogen bonded simultaneously to the two acylaminopyridines moieties. […] The contribution of the phenanthroline to binding is uncertain, but it appears to play only a minor role; no protons on the phenanthroline ring shifted more than 0.014 ppm during the course of the titration. […] The stoichiometry of the complexes was 2:1 as determined by the concentration of dicarboxylic acid at which saturation of the receptor was found and independently determined by a Job's plot. A Job's plot is used to measure stoichiometry based on continuous variations of constant concentrations. Binding was most conveniently followed by UV-vis spectroscopy (ΔA550) and was checked against NMR results for pimelic acid and glutaric acid. The binding data was analyzed by assuming that two independent and equal bidentate binding sites are interacting with the substrate. In this way a single association constant is obtained that represents the strength of binding of one of the receptor binding sites with one substrate. […] An exception was N-Cbz-glutamic acid, which is understandable because there are several diastereotopic complexes present (vide infra), each with a different Ka.
(§2) From comparison of FIG. 3 with FIG. 4 which is a change in the visible absorption spectrum of Cu(L)2^+ BF4^- upon addition of glutaric acid, it is clear that the bis-dicarboxylic acid receptor, Cu(1)2^+ BF4^-, is more chromogenic than a mono-dicarboxylic acid receptor, Cu(L)2^+ BF4^-. [drawing 1] The relative change in A550 is 3-4 times greater for Cu(1)2^+ BF4^- than for Cu(L)2^+ BF4^-. A summary of the spectral changes that occur upon complex formation are present in Table 2 below. […]

[2] = NMR titration with glutaric acid; assay type: binding
Excerpt: (§3) Complexation of Receptor 1 with Dicarboxylic Acids. Receptor 1 is a bis(acylaminopyridine) receptor and as such was expected to form strong bidentate interactions with dicarboxylic acids in chloroform. This was indeed the case, as 1 was found by NMR to bind glutaric acid with an association constant of 3.6×10^4 M^-1. Large changes in proton chemical shifts of 1 indicate that the dicarboxylic acid is hydrogen bonded simultaneously to the two acylaminopyridines moieties. […] The contribution of the phenanthroline to binding is uncertain, but it appears to play only a minor role; no protons on the phenanthroline ring shifted more than 0.014 ppm during the course of the titration. […] The stoichiometry of the complexes was 2:1 as determined by the concentration of dicarboxylic acid at which saturation of the receptor was found and independently determined by a Job's plot. A Job's plot is used to measure stoichiometry based on continuous variations of constant concentrations. Binding was most conveniently followed by UV-vis spectroscopy (ΔA550) and was checked against NMR results for pimelic acid and glutaric acid. The binding data was analyzed by assuming that two independent and equal bidentate binding sites are interacting with the substrate. In this way a single association constant is obtained that represents the strength of binding of one of the receptor binding sites with one substrate. […]

[3] = NMR titration with pimelic acid; assay type: binding
Excerpt: as §3

[4] = air stability; assay type: physicochemical; conditions: Cu(I) complex
[5] = UV-vis titration (ΔA550) with pimelic acid in CHCl3; assay type: binding
Excerpt: as §1
(§4) Also reported in Table 2 are the λmax and the relative change in the absorptivity at 550 nm for each substrate/receptor combination. The changes in the absorption spectra are definitely substrate dependent. For example, complexation of pimelic acid results in a less pronounced increase in the shoulder near the red edge and a smaller blue shift in λmax (for Cu(1)2^+ BF4^-,λmax =445 nm) than complexation of the 5-carbon acids, glutaric and N-Cbz-glutamic. […]

[6] = UV-vis titration (ΔA550) with 1,3-phenylenediacetic acid in CHCl3; assay type: binding
Excerpt: as §1, §4

[7] = UV-vis titration (ΔA550) with glutaric acid in CHCl3; assay type: binding
Procedure: FIG. 3 discloses the change in the visible absorption spectrum of Cu(1)2^+ BF4^- upon addition of glutaric acid in CHCl3 [Cu(1)2^+ BF4^- ]=0.106 mM, [glutaric acid]=0-0.5 mM.
FIG. 4 discloses the change in the visible absorption spectrum of [Cu(L)2^+ BF4^- ] upon addition of glutaric acid in CHCl3. [Cu(L)2^+ BF4^- ]=0-0.125 mM [glutaric acid]=0-0.40 mM.
as §1, §2
The origin of the chromogenic effect is definitely a direct result of the bidentate binding of dicarboxylic acids to the receptors. Addition of large excesses of monocarboxylic acids (acetic or trifluoroacetic) to a CHCl3 solution of either Cu(I)-based receptor leads to only minor changes in the absorbance spectrum. […]

[8] = UV-vis titration (ΔA550) with N-Cbz-glutamic acid in CHCl3; assay type: binding
Excerpt: as §3, with “Binding was most conveniently followed by UV-vis spectroscopy (ΔA550) and was checked against NMR results for pimelic acid and glutaric acid.” left out, “substrate.” for “substrate. In this way a single association constant is obtained that represents the strength of binding of one of the receptor binding sites with one substrate.”
In the binding mode proposed in FIG. 5, the structure of the 2:1 complex of glutaric acid with Cu(1)2^+ BF4^- is chiral, similar to a double helix. […] This complicates the analysis of binding because six possibly different binding constants need to be evaluated. […]

[9] = CHCl3, UV-vis ΔA550, per binding site

Row | Structure (SMILES) | receptor strength for dicarboxylic acids ([1]; uncoordinated ligand) | association constant ([2]; uncoordinated receptor, chloroform) [M⁻¹] | Binding Constant (Ka) NMR [3] [M⁻¹] | air stability [4] | positive cooperativity in binding of second equivalent of dicarboxylic acid [1] | color change on binding ([1]; each dicarboxylic acid of Table 1) | spectral change relative to the other dicarboxylic acids [5] | Binding Constant (Ka) UV-vis [5, 9] [M⁻¹] | % Increase ( = 550 nm) ([5]; absorptivity at 550 nm) [%] | spectral change relative to the other dicarboxylic acids [6] | Binding Constant (Ka) UV-vis [6, 9] [M⁻¹] | % Increase ( = 550 nm) ([6]; absorptivity at 550 nm) [%] | Binding Constant (Ka) UV-vis ([7]; glutaric acid, CHCl3, UV-vis ΔA550, per binding site) [M⁻¹] | relative change in A550, compared with Cu(L)2^+ BF4^- ([7]; glutaric acid, FIG. 3 vs FIG. 4) | % Increase ( = 550 nm) ([7]; glutaric acid, absorptivity at 550 nm) [%] | color change upon complexation ([7]; two equivalents of glutaric acid) | Binding Constant (Ka) UV-vis ([8]; CHCl3, UV-vis ΔA550, several diastereomeric complexes, all Ka assumed equal) [M⁻¹] | % Increase ( = 550 nm) ([8]; absorptivity at 550 nm) [%] | Binding Constant (Ka) NMR [2] [M⁻¹]
1 | Cc1cccc(NC(=O)c2ccc(-c3ccc4ccc5ccc(-c6ccc(C(=O)Nc7cccc(C)n7)cc6)nc5c4n3)cc2)n1 [Receptor 1] | good receptor for dicarboxylic acids | 36000 |  |  |  |  |  |  |  |  |  |  |  |  |  |  |  |  | 
2 | Cc1cccc(NC(=O)c2ccc(-c3ccc4ccc5ccc(-c6ccc(C(=O)Nc7cccc(C)n7)cc6)nc5c4n3)cc2)n1.Cc1cccc(NC(=O)c2ccc(-c3ccc4ccc5ccc(-c6ccc(C(=O)Nc7cccc(C)n7)cc6)nc5c4n3)cc2)n1.F[B-](F)(F)F.[Cu+] [Cu(1)2^+ BF4^-] |  |  | 40000 | air stable | not observed | distinct color change from pale orange to bright red | smallest changes in the spectrum | 17000 | 62 | largest change | 35000 | 111 | 78000 | 3-4 times | 101 | obvious color change from pale orange to bright red | 40000 | 105 | 71000
